This is an account of results in article PMC7895558, “Antiprotozoal Compounds from Urolepis hecatantha (Asteraceae)” (Evidence-based Complementary and Alternative Medicine : eCAM, 2021).

Values joined by “and” are separate entries in the source; they are usually repeats but may differ in a detail not shown here. Equal values may be shown once. Read-outs that look alike come from different tables or passages of the source.

The subject of data set [1] is Trypanosoma cruzi epimastigotes (Tulahuen 2 strain). The experiment in a line: in vitro anti-Trypanosoma cruzi activity (epimastigote growth, absorbance 600 nm). Particulars: for IC50: Trypanosoma cruzi, TULAHUEN, 120 h, read-out: IC50 on T. cruzi epimastigotes. Format: cell-based. The method, then: (§1) For the anti-Trypanosoma and anti-Leishmania activity assays, we followed the methods described by Aguilera et al., 2019 [15].
For the in vitro anti-Trypanosoma cruzi activity, epimastigotes of the Tulahuen 2 strain (genotype TcVI) grown in an axenic medium (BHI-Tryptose) were used. Cells from a 5–7-day-old culture were inoculated in a fresh culture medium to give an initial concentration of 10^6 cells/mL. The absorbance at 600 nm of the cells in culture was measured every day. On day five, the medium was inoculated with different doses of the compounds (25–0.05 µM) from a stock solution in dimethylsulfoxide (DMSO) (DMSO concentration in the culture medium never exceeded 0.4%). Control parasites were cultivated in medium with 0.4% DMSO v/v. Benznidazole was used as a positive control. At five days, the absorbance of the culture was measured and compared to the control and the IC50 values were calculated for each compound using OriginLab 8.5® sigmoidal regression. Each experiment was done in duplicate, and each concentration was tested in triplicate.

Data set [2] can be described thus: cytotoxicity assay (MTT). Type of data set: cell-based. The conditions noted are these: mouse. The method, then:
The cytotoxicity of the dewaxed dichloromethane extract of U. hecatantha and the isolated compounds was evaluated according to the method described by Aguilera et al., 2019 [15]. The J774.1 murine macrophages (ATCC, USA) were grown in a DMEM culture medium containing 4 mM L-glutamine and supplemented with 10% FCS. Cells were seeded in a 96-well plate (5.00 × 10^4 cells in 200 µL culture medium) and incubated at 37°C in a 5% CO2 atmosphere for 48 h, to allow cell adhesion before drug testing. Afterwards, cells were exposed for 48 h to the compounds (25–400 µM) or the vehicle for control (medium with 0.4% DMSO v/v), and additional control (cells in medium) were used in each test. Cell viability was then assessed by measuring the mitochondria-dependent reduction of MTT [3-(4,5-dimethylthiazol-2-yl)-2,5-diphenyltetrazolium bromide] to formazan. For this purpose, MTT in sterile PBS (containing 0.2% glucose), pH 7.4, was added to the macrophages to achieve a final concentration of 0.1 mg/mL, and the cells were incubated at 37°C for 3 h. After removing the medium, formazan crystals were dissolved in 180 µL of DMSO and 20 µL of MTT buffer (0.1 M glycine, 0.1 M NaCl, 0.5 mM EDTA, pH 10.5), and the absorbance at 560 nm was measured. The CC50 was defined as the drug concentration at which 50% of the cells were viable, relative to the control (no drug added), and was determined using OriginLab 8.5® sigmoidal regression (% of viable cells compared to the logarithm of the compound concentration). Tests were performed in triplicate.

For data set [3], the system named is Leishmania infantum promastigotes. The experiment in a line: anti-Leishmania activity (promastigotes, resazurin). Type of data set: cell-based. Particulars: 48 h, read-out: IC50 on L. infantum promastigotes. The method, then:
as §1
Leishmania infantum (MHOM/BR/2002/LPC-RPV) was obtained from Fiocruz (Collection of Oswaldo Cruz Foundation, Rio de Janeiro, Brazil). Promastigotes were cultured as described with some modifications at 28°C in an axenic medium (BHI-Tryptose supplemented with: FBS 10%, hemine 2 × 10^−5 mg/mL, glucose 3.0 × 10^−4 g/mL, streptomycin 2.0 × 10^−4 g/mL, ampicillin 1.3 × 10^−4 g/mL) as a low-cost alternative for Leishmania spp. culture. Assays were performed in 96-well plastic plates using 2 × 10^6 promastigotes per well. Compounds were dissolved in DMSO. Different serial dilutions (25–0.05 µM) of the compounds with a final volume up to 200 µL were added. After 48 h at 28°C, 20 µL of a 2 mM resazurin solution was added, and the oxidation-reduction was quantified at 570 and 600 nm. The resazurin solution was prepared at 2.5 mM in phosphate-buffered solution (PBS), pH 7.4, and filtered through 0.22 µm before use. Resazurin sodium salt was obtained from Sigma-Aldrich (St. Louis, MO, USA) and stored at 4°C protected from light. Glucantime was used as a positive control. The efficacy of each compound was estimated by calculating the IC50 values using OriginLab 8.5® sigmoidal regression. Each antiproliferative experiment was done in duplicate, and each concentration was tested in triplicate.

The subject of data set [4] is Trypanosoma brucei rhodesiense trypomastigotes. The conditions noted are these: cited from earlier work.
Data set [5] relates to L6-cell line from rat-skeletal myoblasts. Further details: method as in PMID 29244495. The conditions noted are these: read-out: CC50 on L6 cells; cited from earlier work.
The mark [6] stands for this setting: Leishmania infantum, promastigotes.

In the case of `C=C1C(=O)O[C@@H]2/C=C(\C)[C@@H](O)C/C=C(\C)C[C@@H](OC(=O)/C(=C/CO)COC(C)=O)[C@@H]12` [compound 3, santhemoidin C], the IC50 (commonly the point on the concentration scale where inhibition reaches its midpoint) in data set [1] (epimastigotes, 5 days) was 18 µM and 7.6 µg/mL; in data set [3] (setting [6]) it was 19 µM and 8 µg/mL. The CC50 (usually the concentration giving 50% cytotoxicity) at 48 h in data set [2] (J774.1 murine macrophages) is more than 15 µM.

For `C=C1C(=O)O[C@@H]2/C=C(/C)[C@@H](OC(C)=O)C/C=C(\C)C[C@@H](OC(=O)/C(=C/CO)CO)[C@@H]12` [compound 4, eucannabinolide], the 50% inhibitory concentration (IC50) in data set [4] (loaded onto polylactic acid nanoparticles, target not restated in the sentence, read-out: free drug equivalent IC50) is 3.32 µM; in data set [4] (read-out: IC50 against Trypanosoma brucei rhodesiense trypomastigotes), 1.1 ± 0.1 µM; in data set [1] (epimastigotes, 5 days), 10 µM and 4.2 µg/mL; in data set [3] (setting [6]) it was more than 25 µM. Also, the cytotoxic concentration (CC50) in data set [5] is 7.8 ± 0.8 µM; in data set [2] (murine macrophages, 48 h) it was 15 µM. In addition, the “selectivity index (SI) on T. cruzi” value in data set [1] (macrophage CC50 versus T. cruzi epimastigote IC50) was determined as 1.5.

On to `O=C(Cn1ccnc1[N+](=O)[O-])NCc1ccccc1` [benznidazole, reference compound], for which the IC50 in data set [1] (epimastigotes, 5 days) amounted to 7 ± 2 µM.

For `COc1cc(-c2oc3cc(O)c(OC)c(O)c3c(=O)c2OC)ccc1O` [compound 2, jaceidin], the IC50 in data set [1] (epimastigotes, 5 days) is more than 25 µM; in data set [3] (setting [6]) it was more than 25 µM. The same molecule showed a 50% cytotoxic concentration (CC50) at 48 h in data set [2] (J774.1 murine macrophages) of more than 25 µM.

For the molecule Glucantime [reference compound], in data set [3] (promastigotes), the half-inhibitory concentration (IC50) is 26 ± 9 µM.

With `C=C(C)c1cc2cc(C(C)=O)c(O)cc2o1` [compound 1, euparin], the concentration for half-maximal inhibition (IC50) is more than 25 µM in data set [1]; 18 µM and 3.9 µg/mL in data set [3] (Leishmania infantum). Moreover, the CC50 at 48 h in data set [2] (murine macrophages) was more than 25 µM.
